In the NIST ThermoML archive (doi:10.1016/j.jct.2006.09.007):
Several values for one entry are separate records, joined by “and”; a condition that tells them apart may be missing. Equal values may be shown once.

Experiments:
[1] = 101.3 kPa, Liquid
[2] = molar heat capacity at constant pressure; conditions: 298.15 K; 101.33 kPa; Liquid; Flow calorimetry
[3] = xn = mol fraction of the nth substance listed; conditions: 101.3 kPa, Liquid

CC(C)c1ccccc1 [isopropylbenzene]
[1]
Conditions | mass density [kg/m3]
298.15 K | 857.41
308.15 K | 848.26

Conditions | molar heat capacity at constant pressure [J/K/mol]
[2] | 214.75

Cc1ccccc1C [1,2-dimethylbenzene]
[1]
Conditions | mass density [kg/m3]
298.15 K | 875.55
308.15 K | 866.29

Conditions | molar heat capacity at constant pressure [J/K/mol]
[2] | 187.28

N#Cc1ccccc1 [benzonitrile] + CCc1ccccc1
[3]
Conditions | excess molar heat capacity, 298.15 K [J/K/mol] | mass density, 298.15 K [kg/m3] | mass density, 308.15 K [kg/m3]
x1 = 0.0616 | – | 870.36 | 860.67
x1 = 0.0673 | – | 871.08 | 861.35
x1 = 0.0699 | 0.77 | – | –
x1 = 0.1221 | 1.239 | – | –
x1 = 0.1384 | – | 880.39 | 870.62
x1 = 0.219 | 1.824 | – | –
x1 = 0.2367 | – | 893.17 | 883.4
x1 = 0.3021 | 2.096 | – | –
x1 = 0.3478 | 2.184 | – | –
x1 = 0.3726 | – | 911.19 | 901.43
x1 = 0.4424 | 2.181 | – | –
x1 = 0.4563 | – | 922.38 | 912.65
x1 = 0.4991 | – | 928.14 | 918.47
x1 = 0.5151 | 2.098 | – | –
x1 = 0.5903 | – | 940.59 | 931
x1 = 0.5925 | 1.917 | – | –
x1 = 0.6379 | 1.786 | – | –
x1 = 0.6935 | – | 955 | 945.46
x1 = 0.7404 | 1.395 | – | –
x1 = 0.7801 | – | 967.39 | 957.85
x1 = 0.8033 | 1.119 | – | –
x1 = 0.8857 | 0.666 | – | –
x1 = 0.8862 | – | 983.01 | 973.45
x1 = 0.947 | 0.33 | – | –
x1 = 0.9502 | – | 992.6 | 983.07
x1 = 1 | – | 1000.25 | 990.67

Cc1ccc(C)c(C)c1 [1,2,4-trimethylbenzene] + N#Cc1ccccc1
[3], x2 = 0
Conditions | mass density [kg/m3]
298.15 K | 871.56
308.15 K | 862.53

COc1ccccc1 [anisole] + N#Cc1ccccc1
[3], x2 = 0
Conditions | mass density [kg/m3]
298.15 K | 988.98
308.15 K | 978.7

Cc1cc(C)cc(C)c1 [1,3,5-trimethylbenzene]
[1]
Conditions | mass density [kg/m3]
298.15 K | 860.9
308.15 K | 851.88

Conditions | molar heat capacity at constant pressure [J/K/mol]
[2] | 207.43

N#Cc1ccccc1 [benzonitrile] + Cc1ccc(C)c(C)c1
[3]
Conditions | excess molar heat capacity, 298.15 K | mass density, 298.15 K [kg/m3] | mass density, 308.15 K [kg/m3]
x1 = 0.0712 | – | 879.01 | –
x1 = 0.0829 | 0.643 J/K/mol | – | –
x1 = 0.1322 | – | 885.6 | 876.48
x1 = 0.1409 | 0.998 J/K/mol and 0.981 J/K/mol | – | –
x1 = 0.1765 | – | 890.46 | 881.29
x1 = 0.2844 | 1.571 J/K/mol and 1.511 J/K/mol | – | –
x1 = 0.2874 | – | 902.94 | 893.72
x1 = 0.3441 | – | 909.49 | 900.27
x1 = 0.377 | 1.621 J/K/mol | – | –
x1 = 0.3967 | – | 915.71 | 906.56
x1 = 0.445 | – | 921.57 | 912.35
x1 = 0.4558 | 1.622 J/K/mol | – | –
x1 = 0.5283 | – | 932.03 | 922.7
x1 = 0.5359 | 1.475 J/K/mol | – | –
x1 = 0.5861 | – | 939.54 | 930.13
x1 = 0.6329 | – | 945.69 | 936.31
x1 = 0.6367 | 1.241 J/K/mol | – | –
x1 = 0.6879 | – | 953.12 | 943.75
x1 = 0.6974 | 1.021 J/K/mol | – | –
x1 = 0.7772 | 0.753 J/K/mol | – | –
x1 = 0.7796 | – | 966.07 | 956.62
x1 = 0.7804 | – | 966.21 | 956.8
x1 = 0.8187 | – | 971.88 | 962.37
x1 = 0.9027 | – | 984.6 | 975.04
x1 = 0.9039 | 0.294 J/K/mol | – | –
x1 = 0.9079 | – | 985.41 | 975.88
x1 = 0.9431 | 0.176 J/K/mol | – | –
x1 = 0.9687 | – | 995.12 | –
x1 = 0.9822 | – | 997.27 | –
x1 = 1 | – | 1000.25 | 990.67

CCc1ccccc1 [ethylbenzene] + N#Cc1ccccc1
[3], x2 = 0
Conditions | mass density [kg/m3]
298.15 K | 862.41
308.15 K | 852.72

CC(C)c1ccccc1 [isopropylbenzene] + N#Cc1ccccc1
[3], 298.15 K, Flow calorimetry
Conditions | excess molar heat capacity [J/K/mol]
x2 = 0.0812 | 1.087
x2 = 0.1147 | 1.448
x2 = 0.2052 | 2.23
x2 = 0.3131 | 2.763
x2 = 0.3691 | 2.935
x2 = 0.4488 | 2.929
x2 = 0.5194 | 2.919
x2 = 0.6256 | 2.511
x2 = 0.6997 | 2.226
x2 = 0.8003 | 1.545
x2 = 0.9038 | 0.825
x2 = 0.9407 | 0.527

mass density [kg/m3], [3]
Conditions | 298.15 K | 308.15 K
x2 = 0 | 857.41 | 848.26
x2 = 0.0581 | 864.33 | 855.15
x2 = 0.0865 | 867.75 | 858.59
x2 = 0.2036 | 882.15 | 872.93
x2 = 0.2835 | 892.28 | 883.09
x2 = 0.3445 | 900.22 | 891.02
x2 = 0.3887 | 906.07 | 896.85
x2 = 0.4445 | 913.59 | 904.41
x2 = 0.5627 | 930.2 | 920.94
x2 = 0.6557 | 943.85 | 934.41
x2 = 0.7271 | 954.72 | 945.3
x2 = 0.8102 | 967.92 | 958.51
x2 = 0.9017 | 983.11 | 973.75

Cc1cc(C)cc(C)c1 [1,3,5-trimethylbenzene] + N#Cc1ccccc1
[3], x2 = 0
Conditions | mass density [kg/m3]
298.15 K | 860.9
308.15 K | 851.88

N#Cc1ccccc1 [benzonitrile] + Cc1ccc(C)cc1
[3], 298.15 K, Flow calorimetry
Conditions | excess molar heat capacity [J/K/mol]
x1 = 0.0349 | 0.303
x1 = 0.0918 | 0.681
x1 = 0.2035 | 1.281
x1 = 0.2559 | 1.362
x1 = 0.3682 | 1.534
x1 = 0.4313 | 1.443
x1 = 0.5014 | 1.374
x1 = 0.5905 | 1.132
x1 = 0.6663 | 0.966
x1 = 0.7646 | 0.664
x1 = 0.8402 | 0.453
x1 = 0.9222 | 0.168
x1 = 0.9776 | 0.082

mass density [kg/m3], [3]
Conditions | x1 = 0.1009 | x1 = 0.2247 | x1 = 0.2938 | x1 = 0.4357 | x1 = 0.5627 | x1 = 0.6605 | x1 = 0.7646 | x1 = 0.8328 | x1 = 0.9439 | x1 = 1
298.15 K | 869.79 | 886.32 | 895.69 | 915.25 | 933.25 | 947.47 | 963.07 | 973.55 | 991.13 | 1000.25
308.15 K | 860.32 | 876.88 | 886.28 | 905.85 | 923.86 | 938.07 | 953.65 | 964.15 | 981.68 | 990.67
